{"source": "paper PMC6383986", "about": "“Fragment-Based Covalent Ligand Screening Enables Rapid Discovery of Inhibitors for the RBR E3 Ubiquitin Ligase HOIP” (Journal of the American Chemical Society, 2019)", "key": {"[1]": {"test_system": "HEK293T cells overexpressing full-length HOIP, HOIL-1L, and SHARPIN", "assay": "CellTiter-Glo Luminescent cell viability assay, transfected cells", "format": "cell-based", "details": "17 h", "method": "Thurston, Imperial College London. 2.3 × 10^6 cells were seeded into 100 mm Petri dishes in DMEM media supplemented with 10% v/v FBS (Biosera) and 1% v/v L-glutamine/penicillin/streptomycin (Sigma-Aldrich) and incubated at 37 °C overnight. The following morning the cells were transfected using either 6 µg pcDNA3 or 4.5 µg HOIP, 0.3 µg HOIL-1L and 1.2 µg SHARPIN as well as 450 ng pRDII Luc and 180 ng pRLTK (Promega) plasmids. 7 h after transfection, the cells were trypsinized and re-suspended in DMEM media supplemented with 1% v/v FBS (Biosera) and 1% v/v L-glutamine/penicillin/streptomycin (Sigma-Aldrich). […]\nReporter assays: After incubating the plates for 17 h, Firefly and Renilla Luciferase activity was analyzed using the Dual-Luciferase® Reporter Assay System (Promega) and a BertholdTech […]\nwith Mikrowin 2000 software version 4.41: using its injectors to inject 100 µL LAR II and 100 µL Stop&Glo (see manufacturer’s instructions; Promega #E1960). NF-κB regulated luciferase activity was first normalized to Renilla luciferase activity and then the fold activation relative to cells transfected with empty vector calculated. […]\nCell viability assays: After incubating the plates for 17 h in the presence of compound, cell viability was determined using the CellTiter-Glo® Luminescent Cell Viability Assay according to manufacturer’s instructions (Promega #G7571). […]"}, "[2]": {"biological_target": "T1, 3 × FLAG-tagged HOIP RBR in HEK293T cells (Homo sapiens, UniProt Q96EP0)", "T1 construct": "expressed in transfected cells; host or cells: HEK293T, transient, modified pcDNA3.1(+)", "T1 sequence (Q96EP0 697-1072)": "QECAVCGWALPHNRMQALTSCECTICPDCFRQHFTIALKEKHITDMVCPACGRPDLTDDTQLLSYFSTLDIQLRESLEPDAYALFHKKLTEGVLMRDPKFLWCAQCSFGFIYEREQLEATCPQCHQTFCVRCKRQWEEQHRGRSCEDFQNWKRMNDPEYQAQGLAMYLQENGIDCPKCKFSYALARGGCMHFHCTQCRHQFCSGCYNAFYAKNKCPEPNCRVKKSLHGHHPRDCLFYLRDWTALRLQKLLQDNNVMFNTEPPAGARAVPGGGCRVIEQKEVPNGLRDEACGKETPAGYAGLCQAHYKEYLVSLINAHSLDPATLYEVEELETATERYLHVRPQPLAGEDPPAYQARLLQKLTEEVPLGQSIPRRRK", "assay": "ABPP in-gel fluorescence, competition with TCO probe (15)", "format": "cell-based", "details": "30 μM 7 h pretreatment, then 3 μM (15) 2 h; vs (11i), (17), DMSO", "source_text": "PCR purification kit QIAquick Qiagen 28104\nMaxiprep Kit Endofree plasmid Maxi Kit Qiagen 12362\nE coli Competent DH5α New England C2987H\nE coli Competent BL21 GOLD(DE3) Agilent 230132\nLDS loading buffer NuPAGE 4× LDS loading buffer Invitrogen NP0008\nTrypsin Cell Culture TE Trypsin Gibco R-001-100\nTrypsin Sequencing Grade Modified Trypsin Promega V511A\nChymotrypsin Sequencing Grade Chymotrypsin Promega V106A\nCy5-Tetrazine Fluorescent probe for IEDDA click chemistry DC Biosciences CCR-1189-1 Tz-PEG4-Biotin Tetrazine linked biotin Jena Bioscience CLK-027-25\nNeutrAvidin beads High capacity NeutrAvidin agarose resin Thermo 29204 […]\n5.1 Activity-based protein profiling – In-gel fluorescence […]\nHEK293T cells were cultured and transfected with 3×FLAG-tagged HOIP RBR wild type or C885A mutant, or mock as described in section 4.8 above. […] The cells were harvested and lysed (50 mM Tris-HCl, pH 7.5, 1.5 mM MgCl2, 150 mM NaCl, 5% glycerol, 0.8% v/v IGEPAL-CA630, 25 mM NaF, 1 mM Na3VO4, complete protease inhibitor), and the protein concentration was determined by the BCA assay as described in section […]\n50 µL. The lysates were incubated at 23 °C, 600 rpm (Eppendorph Thermomixer) for 1 h, then analyzed by SDS PAGE (section 4.5) and in-gel fluorescence (LI-COR) at 700 nm, and by Western Blot as described in section 4.6 (Figure 6E and Supplementary Figures S15, S16). […]"}}, "data": [{"smiles": "COC(=O)/C=C/CNC(=O)c1cc2c([nH]c1=O)CCCC2", "note": "[Compound 11a]", "values": [{"measurement": "effect on cell viability", "setting": "[1]", "value": "neither compound had any effect on cell viability"}, {"measurement": "in-gel fluorescence of HOIP RBR labeled by probe (15)", "setting": "[2]", "value": "significant reduction of the in-gel fluorescence of HOIP RBR"}]}]}
